Values of other authors in patent US9072749B2, “Treatment of age-related macular degeneration” (priority 2007, dated 2015).
Where two headings read alike, the source gives them in different places.

Legend:
[1] = test system: choroidal neovascularization; details: in vivo
dogs = details: oral dosing in dogs
[2] = oral dosing in dogs
D1/D5 receptor = details: anesthetized rabbits

In the case of CC1=C(/C=C/C(C)=C/C=C/C(C)=C/C=C/C=C(C)/C=C/C=C(C)/C=C/C2=C(C)C(=O)C(O)CC2(C)C)C(C)(C)CC(O)C1=O (stereo not shown) [Astaxanthin], the choroidal neovascularization [1] is listed as “inhibit choroidal neovascularization”.
For Oc1ccc(C2CNCCc3c2cc(O)c(O)c3Cl)cc1 (stereo not shown) [Fenoldopam], the “duration of drug blood level and increase in renal blood flow” value (dogs; FIGS. 2a and 2b) is listed as “relatively short duration” and the “plasma fenoldopam (drug blood) level” value [2] is listed as “rapidly gives high drug blood level”.
For CCNC(=O)Oc1ccc([C@H]2CNCCc3c2cc(OC(=O)NCC)c(OC(=O)NCC)c3Cl)cc1 [SKF 10508], the “time for which the increase in renal blood flow is sustained” value (dogs; FIGS. 3A and 3B) is given as “greater than 6 hours”, the “plasma fenoldopam (drug blood) level” value [2] is given as “more gradual increase of drug blood level” and the “plasma fenoldopam (drug blood) level” value ([2]; listed as SK&F 105058) is given as “release fenoldopam slowly after oral absorption”.
For NCCc1ccc(O)c(O)c1 [dopamine], the choroidal vasodilation (D1/D5 receptor) is given as “caused choroidal vasodilation”.
